Data set [1] deals with Bibionidae. Particulars: chronic/long-term; duration: 28 days.
Data set [2] relates to Oncorhynchus mykiss. Particulars: acute; duration: 96 hours; mortality.
The test system of data set [3] is Rattus norvegicus.
The subject of data set [4] is Tagia sp. Particulars: mortality.
The test system of data set [5] is Folsomia candida. Particulars: chronic/long-term; duration: 28 days.
In data set [6] the test system is Apis mellifera. Particulars: acute; duration: 48 hours; dermal; mortality.
The test system of data set [7] is Canidae. Particulars: chronic; duration: 1 years; oral; diet; M/F; Beagle; hematological.
In data set [8] the test system is Colinus virginianus. Particulars: for LD50: acute, oral, mortality.
For data set [9], the system named is Daphnia magna. Particulars: chronic/long-term; duration: 21 days; mortality.
Data set [10] concerns Pimephales promelas. Particulars: chronic/long-term; duration: 34 days; reproduction.
For data set [11], the system named is Anas platyrhynchos. Particulars: short-term; oral; feed; mortality.
Data set [12] deals with Aphidius rhopalosiphi. The data set can be described thus: LR50; higher = less toxic. Particulars: not reported; mortality.
Data set [13] deals with Typhlodromus pyri. Description: LR50; higher = less toxic. Particulars: not reported; mortality.

Structures are written as SMILES.

The term NOAEL denotes the highest dose or exposure tested at which no adverse effect was seen. Consider `O=C(NC(=O)c1c(F)cccc1F)Nc1ccc(Oc2ccc(C(F)(F)F)cc2Cl)cc1F` [Flufenoxuron], for which the NOEC in [1] amounted to 3.6e-05 mg/L; in [4] (chronic/long-term, duration: 56 days), 5 mg/kg; in data set [5], 0.11 mg/kg; in data set [9] it was 3.24e-06 mg/L; in data set [10], 0.00082 mg/L. Moreover, the LC50 in [2] is more than 5 ng/mL; in data set [4] (acute, duration: 14 days), more than 1000 mg/kg. For the same compound, the LD50 in data set [3] (acute, oral, mortality) is more than 3000 mg/kg-day; in [6], more than 100 µg/piece; in [8] (diet), more than 1240 mg/kg-day; in [8], more than 2000 mg/kg-day; in data set [11], more than 1240 mg/kg-day. Besides, the NOAEL was 4.3 mg/kg-day in data set [3] (reproduction developmental, growth) and not above 3.8 mg/kg-day in data set [7]. Also, in [8] (reproduction developmental), the NOEL came out at 9.76 mg/kg-day. Also, the values for the LR50 in [12] and in data set [13] were more than 386 g/ha and 73 g/ha, respectively.

The record behind these values is EPA's ToxValDB 9.5 (doi:10.2903/j.efsa.2011.2088).
